Assay: mn = molality of the nth substance listed, in mol/kg
Settings: 101 kPa, Liquid, Alternating current cell with electrodes

O=[N+]([O-])[O-].O=[N+]([O-])[O-].O=[N+]([O-])[O-].[Fe+3] [ferric nitrate] + O
electrical conductivity [S/m]
Settings | 278.1 K | 283.1 K | 298.15 K | 308.15 K | 318.15 K | 343.15 K | 363.15 K
m1 = 9.9e-05 | – | – | – | – | – | 9.086 | 10.27
m1 = 0.000984 | – | – | – | – | – | 9.106 | 10.33
m1 = 0.00985 | – | – | – | – | – | 9.553 | 10.91
m1 = 0.09618 | 5.143 | 5.777 | 7.576 | 8.788 | 10.15 | 13.85 | 16.52
m1 = 0.2534 | 6.656 | 7.523 | 9.984 | 11.83 | 14.02 | 20.32 | –

[F-].[K+] [potassium fluoride] + O
electrical conductivity [S/m]
Settings | 278.15 K | 283.15 K | 298.15 K | 308.15 K | 318.15 K | 343.15 K | 363.15 K
m1 = 0.000325 | 0.002576 | 0.002933 | 0.004125 | 0.005036 | 0.005965 | 0.008448 | 0.01046
m1 = 0.00109 | 0.008262 | 0.009509 | 0.01357 | 0.01642 | 0.01929 | 0.02734 | 0.03426
m1 = 0.035 | 0.2417 | 0.2829 | 0.3939 | 0.4778 | 0.5576 | 0.7954 | 0.9964
m1 = 0.11 | 0.7375 | 0.8455 | 1.195 | 1.445 | 1.692 | 2.409 | 3.004
m1 = 0.52 | 3.023 | 3.435 | 4.804 | 5.771 | 6.801 | 9.683 | 11.86
m1 = 0.99 | 5.272 | 6.034 | 8.275 | 9.907 | 11.75 | 16.85 | 20.13

O=C([O-])[O-].[K+].[K+] [potassium carbonate] + O
electrical conductivity [S/m]
Settings | 278.15 K | 283.15 K | 298.15 K | 308.15 K | 318.15 K | 343.15 K | 363.15 K
m1 = 0.00132 | 0.02129 | 0.02471 | 0.03642 | 0.0439 | 0.05331 | 0.07921 | 0.09755
m1 = 0.01048 | 0.1568 | 0.1809 | 0.2575 | 0.3146 | 0.3758 | 0.5522 | 0.6987
m1 = 0.1319 | 1.589 | 1.815 | 2.542 | 3.054 | 3.59 | 5.098 | 6.345
m1 = 0.3525 | 3.8 | 4.305 | 5.942 | 7.115 | 8.319 | 11.6 | 14.31

[Ba+2].[Cl-].[Cl-] [barium chloride] + O
electrical conductivity [S/m]
Settings | 278.15 K | 283.15 K | 298.15 K | 308.15 K | 318.15 K | 343.15 K | 363.15 K
m1 = 9.2e-05 | 0.001632 | 0.00188 | 0.002597 | 0.003085 | 0.003626 | 0.005187 | 0.00644
m1 = 0.0011 | 0.01799 | 0.0206 | 0.02897 | 0.03508 | 0.04141 | 0.05911 | 0.07372
m1 = 0.00896 | 0.1386 | 0.1585 | 0.2229 | 0.2681 | 0.3161 | 0.4493 | 0.5593
m1 = 0.1029 | 1.366 | 1.553 | 2.167 | 2.588 | 3.034 | 4.247 | 4.814
m1 = 0.31 | 3.657 | 4.127 | 5.589 | 6.794 | 7.859 | 10.32 | 12.51

Cl.N [ammonium chloride (NH4Cl)] + O
electrical conductivity [S/m]
Settings | 278.15 K | 283.15 K | 298.15 K | 308.15 K | 318.15 K | 343.15 K | 363.15 K
m1 = 0.000977 | 0.008892 | 0.01017 | 0.01441 | 0.01738 | 0.02024 | 0.0287 | 0.03591
m1 = 0.00965 | 0.0856 | 0.09786 | 0.1381 | 0.1671 | 0.1938 | 0.2731 | 0.3363
m1 = 0.09765 | 0.7999 | 0.9148 | 1.276 | 1.545 | 1.801 | 2.535 | 3.142
m1 = 0.4735 | 3.542 | 4.027 | 5.525 | 6.577 | 7.691 | 10.75 | 13.26
m1 = 1.034 | 7.301 | 8.293 | 11.12 | 13.13 | 15.36 | 21.55 | 25.35

O=S(=O)([O-])[O-].[Fe+2] [iron(II) sulfate] + O
electrical conductivity [S/m]
Settings | 278.1 K | 283.1 K | 298.15 K | 308.15 K | 318.15 K | 343.15 K | 363.15 K
m1 = 0.00112 | 0.06212 | 0.06791 | 0.08697 | 0.09771 | 0.1075 | 0.1235 | 0.1274
m1 = 0.00212 | 0.06435 | 0.07287 | 0.09366 | 0.1063 | 0.1165 | 0.1409 | 0.1543
m1 = 0.01287 | 0.1183 | 0.1326 | 0.1784 | 0.2092 | 0.2419 | 0.3214 | 0.3988
m1 = 0.1121 | 0.2469 | 0.269 | 0.3516 | 0.3913 | 0.4714 | – | –
m1 = 0.2576 | 1.238 | 1.415 | 1.98 | 2.303 | 2.692 | 3.631 | 4.11

O=[N+]([O-])[O-].[K+] [potassium nitrate] + O
electrical conductivity [S/m]
Settings | 278.15 K | 283.15 K | 298.15 K | 308.15 K | 318.15 K | 343.15 K | 363.15 K
m1 = 0.000103 | 0.0009389 | 0.001073 | 0.001486 | 0.001798 | 0.002048 | 0.00283 | 0.00348
m1 = 0.000997 | 0.008901 | 0.01015 | 0.01411 | 0.01701 | 0.01956 | 0.02717 | 0.0338
m1 = 0.01026 | 0.0874 | 0.09971 | 0.1385 | 0.1664 | 0.1919 | 0.2666 | 0.3287
m1 = 0.09972 | 0.7601 | 0.8658 | 1.201 | 1.44 | 1.669 | 2.342 | 2.875
m1 = 0.4093 | 2.815 | 3.211 | 4.407 | 5.264 | 6.162 | 8.59 | 10.45
m1 = 0.7941 | 4.806 | 5.474 | 7.428 | 8.831 | 10.38 | 14.63 | 16.97

[Cl-].[K+] [potassium chloride] + O
electrical conductivity [S/m]
Settings | 278.15 K | 283.15 K | 298.15 K | 308.15 K | 318.15 K | 343.15 K | 363.15 K
m1 = 0.0001 | 0.0009464 | 0.001074 | 0.001487 | 0.001786 | 0.002105 | 0.002969 | 0.003716
m1 = 0.001 | 0.009198 | 0.0105 | 0.01471 | 0.01773 | 0.0207 | 0.02897 | 0.03587
m1 = 0.01 | 0.0891 | 0.1014 | 0.1408 | 0.1688 | 0.1977 | 0.2761 | 0.3426
m1 = 0.1 | 0.8184 | 0.9292 | 1.283 | 1.532 | 1.788 | 2.471 | 3.086
m1 = 0.5 | 3.875 | 4.375 | 5.92 | 6.981 | 8.107 | 11.23 | 13.48
m1 = 1 | 7.203 | 8.084 | 10.86 | 12.8 | 14.77 | 20.25 | 24.58

Source: the NIST ThermoML archive (doi:10.1021/je101012n)
